According to patent US20100028447A1, “Intranasal, Buccal, And Sublingual Administration Of Metanicotine Analogs” (TARGACEPT, INC., priority 2007, published 2010):

Columns and labels:
[1] = In situ brain perfusion, single time-point method
Description: Animals used in this study were Sprague-Dawley rats (approximate weight 250-300 grams), obtained from Hilltop Lab Animals, Scottdale, Pa. Upon arrival, the rats were assigned randomly to treatment groups and acclimated for at least 24 hours. The animals were housed two per cage and identified by cage labels. A single room was used for this study. The animals were supplied with water and a commercial rodent diet ad libitum. On the day of the experiment, each rat was anesthetized intraperitoneally with Ketamine HCl/Xylazine HCl solution prior to being implanted with a cannula into the left carotid artery. Branch arteries were […], and the cardiac supply was cut off prior to brain perfusion.
Perfusion was performed using the single time-point method. […] Following 30 seconds of perfusion, the pump was stopped, and the brain was removed from the skull immediately. The brain was cut longitudinally in […]. Each left cerebral hemisphere was placed into a chilled tube, frozen on dry ice, and stored frozen at −60° C. to −80° C. until analyzed. […] Test articles were perfused at concentrations of 50 μM. The outline of the experimental treatments and the target and measured concentrations of the test articles and control compounds in the perfusate are presented in Table 3.
The left brain hemisphere from each rat was thawed and weighed. Methanol (20% aqueous) was added to each left brain hemisphere at approximately 4 mL per 1 g of brain tissue, and the mixture was homogenized using sonication with a VirSonic Ultrasonic Cell Disruptor 100 (VirTis). The test articles and two reference compounds were analyzed in the resulting homogenate by using LC/MS/MS.
The unidirectional brain transfer constants Kin (mL/g/min) were determined for the test articles and the high permeability reference, antipyrine, using the following equation for the single-point perfusion assay: […]
where: Cbr/Cpf is the apparent brain distribution volume (mL/g of brain tissue); Cbr is the concentration of drug in the brain tissue (pmol of drug per g of brain tissue); Cpf is the drug concentration in the perfusion fluid (pmol/mL of perfusate); and t is the net perfusion time (minutes).
Graphic representation and statistical analyses of the data were performed using GraphPad Prism software.

[2] = Permeation across cultured human respiratory epithelium (EpiAir tissue), apical-to-basolateral Papp; settings: human, pH 7.4, Papp
Description: (§1) An in vitro model of MatTek EpiAir® tissue was used for the permeability assessment of the test articles and control compounds. The EpiAir® culture consists of cells that have been cultured to form a pseudo-stratified, highly differentiated model closely resembling the epithelial tissue of the human respiratory tract. The histological cross-sections of the cultured tissue reveal a pseudo-stratified mucociliary phenotype.
(§2) EpiAir® tissues plated in 12 well plates were pre-equilibrated for the assay by culturing them for 24 hours at 37° C. with 5% CO2 in a humidified incubator. On the day of the assay, the cultures were washed two times with Dulbeccos' Phosphate Buffered Saline (DPBS buffer) at pH 7.4, and then dosed with donor and receiver buffer applied to the apical and basolateral surfaces of the culture, respectively. The receiver buffer consisted of DPBS, at pH 7.4. The donor solution consisted of DPBS buffer containing the appropriate compounds as specified in Table 1. All treatments were performed in triplicate. The receiver buffer was sampled at 15, 30, 60, and 120 minutes, and the donor buffer was sampled at 120 minutes.
(§3) The Lucifer Yellow concentration in the receiver samples was measured using a FluoStar fluorescence plate reader (BMG Laboratories, Durham, N.C.).
(§4) The apparent permeability coefficient, Papp, was calculated as follows: […]
(§5) where: dCr/dt is the slope of the cumulative concentration in the receiver compartment versus time; Vr is the volume of the receiver compartment; A is the surface area of epithelium available for permeation; and Co is the dosing solution concentration.

[3] = tested on: cultured human respiratory epithelium; experiment: in vitro
Description: as §1, §2, §3, §4, §5

[4] = Table 4 Treatment 1: Compound B perfused with references, Average ± STD
[5] = Table 4 Treatment 1: Compound B perfused with references, Rat 1
[6] = Table 4 Treatment 1: Compound B perfused with references, Rat 2
[7] = Table 4 Treatment 1: Compound B perfused with references, Rat 3
[8] = Table 4 Treatment 2: Compound B perfused with references + MAO inhibitor Pargyline, Average ± STD
[9] = Table 4 Treatment 2: Compound B perfused with references + MAO inhibitor Pargyline, Rat 1
[10] = Table 4 Treatment 2: Compound B perfused with references + MAO inhibitor Pargyline, Rat 2
[11] = Table 4 Treatment 2: Compound B perfused with references + MAO inhibitor Pargyline, Rat 3
[12] = Table 5 Treatment 1: Compound A perfused with references, Average ± STD
[13] = Table 5 Treatment 1: Compound A perfused with references, Rat 1
[14] = Table 5 Treatment 1: Compound A perfused with references, Rat 2
[15] = Table 5 Treatment 1: Compound A perfused with references, Rat 3
[16] = Table 5 Treatment 2: Compound A perfused with references + CYP2D6 inhibitor Quinidine, Average ± STD
[17] = Table 5 Treatment 2: Compound A perfused with references + CYP2D6 inhibitor Quinidine, Rat 1
[18] = Table 5 Treatment 2: Compound A perfused with references + CYP2D6 inhibitor Quinidine, Rat 2
[19] = Table 5 Treatment 2: Compound A perfused with references + CYP2D6 inhibitor Quinidine, Rat 3
[20] = Treatment 3: MAO substrate Phenylethylamine assayed with controls, Average ± STD
[21] = Treatment 3: MAO substrate Phenylethylamine assayed with controls, Rep 1
[22] = Treatment 3: MAO substrate Phenylethylamine assayed with controls, Rep 2
[23] = Treatment 3: MAO substrate Phenylethylamine assayed with controls, Rep 3
[24] = Treatment 4: Phenylethylamine assayed with controls + MAO inhibitor Pargyline, Average ± STD
[25] = Treatment 4: Phenylethylamine assayed with controls + MAO inhibitor Pargyline, Rep 1
[26] = Treatment 4: Phenylethylamine assayed with controls + MAO inhibitor Pargyline, Rep 2
[27] = Treatment 4: Phenylethylamine assayed with controls + MAO inhibitor Pargyline, Rep 3

Cc1cc(=O)n(-c2ccccc2)n1C [Antipyrine, reference compound]
Brain Concentration (corrected for drug retained in vascular volume) [1, 4]: 1083.1 ± 141.4 pmol/g | Kin [1, 4]: 0.342 ± 0.045 mL/g/min | Brain Concentration (corrected for drug retained in vascular volume) [1, 5]: 1123.1 pmol/g | Kin [1, 5]: 0.355 mL/g/min | Brain Concentration (corrected for drug retained in vascular volume) [1, 6]: 1200.2 pmol/g | Kin [1, 6]: 0.379 mL/g/min | Brain Concentration (corrected for drug retained in vascular volume) [1, 7]: 926.0 pmol/g | Kin [1, 7]: 0.292 mL/g/min | Brain Concentration (corrected for drug retained in vascular volume) [1, 8]: 888.5 ± 47.9 pmol/g | Kin [1, 8]: 0.300 ± 0.016 mL/g/min | Brain Concentration (corrected for drug retained in vascular volume) [1, 9]: 833.1 pmol/g | Kin [1, 9]: 0.282 mL/g/min | Brain Concentration (corrected for drug retained in vascular volume) [1, 10]: 914.3 pmol/g | Kin [1, 10]: 0.309 mL/g/min | Brain Concentration (corrected for drug retained in vascular volume) [1, 11]: 918.0 pmol/g | Kin [1, 11]: 0.310 mL/g/min | Brain Concentration (corrected for drug retained in vascular volume) [1, 12]: 1157.1 ± 239.3 pmol/g | Kin [1, 12]: 0.376 ± 0.078 mL/g/min | Brain Concentration (corrected for drug retained in vascular volume) [1, 13]: 1426.6 pmol/g | Kin [1, 13]: 0.463 mL/g/min | Brain Concentration (corrected for drug retained in vascular volume) [1, 14]: 1074.9 pmol/g | Kin [1, 14]: 0.349 mL/g/min | Brain Concentration (corrected for drug retained in vascular volume) [1, 15]: 969.7 pmol/g | Kin [1, 15]: 0.315 mL/g/min | Brain Concentration (corrected for drug retained in vascular volume) [1, 16]: 1124.7 ± 135.5 pmol/g | Kin [1, 16]: 0.386 ± 0.047 mL/g/min | Brain Concentration (corrected for drug retained in vascular volume) [1, 17]: 977.7 pmol/g | Kin [1, 17]: 0.336 mL/g/min | Brain Concentration (corrected for drug retained in vascular volume) [1, 18]: 1244.5 pmol/g | Kin [1, 18]: 0.427 mL/g/min | Brain Concentration (corrected for drug retained in vascular volume) [1, 19]: 1151.8 pmol/g | Kin [1, 19]: 0.395 mL/g/min

NCCc1ccccc1 [Phenylethylamine]
Papp at 120 min [2, 20]: 18.94 ± 0.1 ×10⁻⁶ cm/s | Papp at 120 min [2, 21]: 18.8 ×10⁻⁶ cm/s | Papp at 120 min [2, 22]: 18.9 ×10⁻⁶ cm/s | Papp at 120 min [2, 23]: 19 ×10⁻⁶ cm/s | Papp at 120 min [2, 24]: 35.2 ± 0.98 ×10⁻⁶ cm/s | Papp at 120 min [2, 25]: 34.5 ×10⁻⁶ cm/s | Papp at 120 min [2, 26]: 36.3 ×10⁻⁶ cm/s | Papp at 120 min [2, 27]: 34.7 ×10⁻⁶ cm/s | Permeation (Papp) in the presence of the MAO inhibitor Pargyline compared to alone [3]: significant increased

Lucifer Yellow
Papp ([3]; Treatment 1: Compound B assayed with controls, Average ± STD): 14.40 ± 0.37 ×10^−6 cm/s | Papp ([3]; Treatment 1: Compound B assayed with controls, Rep 1): 1.481e-05 cm/s | Papp ([3]; Treatment 1: Compound B assayed with controls, Rep 2): 1.411e-05 cm/s | Papp ([3]; Treatment 1: Compound B assayed with controls, Rep 3): 1.426e-05 cm/s | Papp ([3]; Treatment 2: Compound B assayed with controls + MAO inhibitor Pargyline, Average ± STD): 15.10 ± 0.11 ×10^−6 cm/s | Papp ([3]; Treatment 2: Compound B assayed with controls + MAO inhibitor Pargyline, Rep 1): 1.509e-05 cm/s | Papp ([3]; Treatment 2: Compound B assayed with controls + MAO inhibitor Pargyline, Rep 2): 1.5e-05 cm/s | Papp ([3]; Treatment 2: Compound B assayed with controls + MAO inhibitor Pargyline, Rep 3): 1.521e-05 cm/s | Papp [3, 20]: 14.82 ± 0.88 ×10^−6 cm/s | Papp [3, 21]: 1.561e-05 cm/s | Papp [3, 22]: 1.388e-05 cm/s | Papp [3, 23]: 1.499e-05 cm/s | Papp [3, 24]: 13.76 ± 0.46 ×10^−6 cm/s | Papp [3, 25]: 1.327e-05 cm/s | Papp [3, 26]: 1.382e-05 cm/s | Papp [3, 27]: 1.42e-05 cm/s | Papp ([3]; Treatment 5: Compound A assayed with controls, Average ± STD): 14.56 ± 1.33 ×10^−6 cm/s | Papp ([3]; Treatment 5: Compound A assayed with controls, Rep 1): 1.491e-05 cm/s | Papp ([3]; Treatment 5: Compound A assayed with controls, Rep 2): 1.309e-05 cm/s | Papp ([3]; Treatment 5: Compound A assayed with controls, Rep 3): 1.568e-05 cm/s | Papp ([3]; Treatment 7: CYP2D6 substrate Bufuralol assayed with controls, Average ± STD): 13.88 ± 0.56 ×10^−6 cm/s | Papp ([3]; Treatment 7: CYP2D6 substrate Bufuralol assayed with controls, Rep 1): 1.355e-05 cm/s | Papp ([3]; Treatment 7: CYP2D6 substrate Bufuralol assayed with controls, Rep 2): 1.357e-05 cm/s | Papp ([3]; Treatment 7: CYP2D6 substrate Bufuralol assayed with controls, Rep 3): 1.452e-05 cm/s
